These results are taken from publication PMC11124341, “4-Hydroxybenzoic Acid-Based Hydrazide–Hydrazones as Potent Growth Inhibition Agents of Laccase-Producing Phytopathogenic Fungi That Are Useful in the Protection of Oilseed Crops” (Molecules, 2024).

For series [1], the system named is Sclerotinia sclerotiorum strain FSc10. Put plainly: In vitro antifungal activity, mycelial growth inhibition on PDA medium. Type of series: cell-based. Conditions: for fungal growth inhibition, S. sclerotiorum / inhibition of growth at 50 µg/mL: screening at basal 50 µg/mL, PDA medium, mean ± SD of three determinations; for inhibition of growth at 50 µg/mL: read-out: fungal growth inhibition, S. sclerotiorum; for IC50: log-logistic model, 0–50 µg/mL range, read-out: IC50 against Sclerotinia sclerotiorum (Ss).

Series [2] concerns Botrytis cinerea strain FBc05. Described as above. It is filed as cell-based. Conditions: for fungal growth inhibition, B. cinerea / inhibition of growth at 50 µg/mL: screening at basal 50 µg/mL, PDA medium, mean ± SD of three determinations; for inhibition at 6.25 µg/mL / inhibition at 25 µg/mL / inhibition at 50 µg/mL / IC50 / inhibition of growth at 50 µg/mL: Botrytis cinerea, FBC05; for inhibition at 6.25 µg/mL / inhibition at 25 µg/mL / inhibition at 50 µg/mL: fungicidal profile, read-out: B. cinerea inhibition; for IC50: log-logistic model, 0–50 µg/mL range, read-out: IC50 against Botrytis cinerea (Bc); for inhibition of growth at 50 µg/mL: read-out: fungal growth inhibition, B. cinerea.

Series [3] has as its system Cerrena unicolor strain no. 139. Described as above. Conditions: for inhibition of growth at 50 µg/mL / inhibition at 50 µg/mL / IC50: Cerrena unicolor, NO.139; for inhibition of growth at 50 µg/mL: read-out: fungal growth inhibition, C. unicolor; for inhibition at 50 µg/mL: fungicidal profile, read-out: C. unicolor inhibition; for IC50: log-logistic model, 0–50 µg/mL range, read-out: IC50 against Cerrena unicolor (Cu). It is filed as cell-based. In outline:
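Compounds in PDA plates (ethanol or DMSO co-solvent, 0.1–1.0% v/v), screened at 50 µg/mL, selected ones at 0–50 µg/mL; 5 mm mycelial plug placed centrally, 22 °C dark until co-solvent control covered (3 d B. cinerea, S. sclerotiorum; 7 d C. unicolor). IC50 from nonlinear dose–response fit, only where growth fell >50%.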

Series [4] concerns rapeseed (Brassica napus L. var. napus) seeds. Briefly: Phytotest 1: phytotoxicity, seed germination and root growth. It is filed as in vivo. Conditions: 50 µg/mL; versus water–ethanol 0.5% (v/v) control; <90% inhibition, 90–110% no effect, >110% stimulation. The source says:
(§1) In the experiments with plants, two aspects were taken under consideration: (1) phytotoxicity, which determined the toxicity of the hydrazide–hydrazones on seed germination and root growth, and (2) study on the behavior of seeds in the presence of the tested hydrazide–hydrazones and pathogens producing laccase (B. cinerea and S. sclerotiorum). The non-coated seeds of Linum usitatissimum, Helianthus annuus, and Brassica napus var. napus were provided by the Institute of Soil Science and Plant Cultivation, National Research Institute in Pulawy, Department of Weed Science and Tillage Systems, and Institute of Technology and Life Sciences–National Research Institute Falenty (Poland). Both phytotests were performed based on direct-contact microbiotests following the protocol recommended by the manufacturer (PhytotestkitTM, MicroBio Tests, Mariakerke, Belgium) with the authors’ modifications.
(§2) The main phytotest equipment (Tigret, Warsaw, Poland) and general methods are described as follows. Test plates (21 × 15.5 × 0.8 cm) provide optimal moisture and enable observation of seed germination and data reading at the end of the test. A single plate is made of polyvinylchloride and composed of both a transparent bottom and a covering part that are stuck together by a set of press buttons. […] Such prepared wet support was covered with a black filter paper that soaked the solution and was applied for further testing.
(§3) In the assay of phytotoxicity (1), the seeds of three dicota plants were used, namely ten seeds of flax or rapeseed and six seeds of sunflower. The seeds were transferred directly on the filter surface by placing them along the line at approximately 1 cm from the ridge at equal distances. Then, the seeds on the filter surface were covered with a covering part and placed in a holder.
(§4) All test plates were put vertically in a special incubator to allow free germination and growth of roots at 25 °C through 5 days in the dark. The test was performed in triplicate for each test plant. The results were expressed as the germination index values (GI, Equation (2)) concerning the plant growth controls in water–ethanol solution for (1). […] The GI was calculated from the formula and categorized as an inhibition for GI values < 90%, as stimulation > 110%, and between 90 and 110% as non-toxic/no effect as proposed in the literature. (2) GI,%=Gs×Ls/Gc×Lc×100% where Gs is seed germination (%), Ls is root elongation (mm) for the test plate, and Gc and Lc are corresponding values for the control plates. Gc was calculated as the proportion of germinated seeds in the test in relation to the number of germinated seeds in the control. The control was the representative number of seeds that germinated on a medium with 0.5% (v/v) of ethanol.

The subject of series [5] is flax (Linum usitatissimum L.) seeds. The description is as above. Type of series: in vivo. Conditions: 50 µg/mL; versus water–ethanol 0.5% (v/v) control; <90% inhibition, 90–110% no effect, >110% stimulation.
Source text: as §1, §2, §3, §4

The mark [6] stands for this setting: screening at basal 50 µg/mL, PDA medium, mean ± SD of three determinations.
The mark [7] stands for this setting: Sclerotinia sclerotiorum, FSC10.
[8] abbreviates: Sclerotinia sclerotiorum, FSC10, fungicidal profile, read-out: S. sclerotiorum inhibition.

Values after ≈ are worked out from the molar mass of the structure shown.

For orientation: melting point means the temperature of the solid-liquid transition. On to `O=C(N/N=C/c1cc(O)ccc1O)c1ccc(O)cc1` [compound 13], for which the melting point is 304 °C (dec.). The “fungal growth inhibition, S. sclerotiorum” value in series [1] was “n.o”. In addition, the “fungal growth inhibition, B. cinerea” value in series [2] is reported as “n.o”. In series [3] (setting [6]), the “fungal growth inhibition, C. unicolor” value is listed as “n.o”.

Consider `COc1cc(/C=N/NC(=O)c2ccc(O)cc2)ccc1O` [compound 17], for which the “Germination index (GI), rapeseed, test 1” value in series [4] was determined as 81%. Further, the inhibition of growth at 50 µg/mL turned out to be 7.3 ± 2.1% in series [1] (setting [7]) and 11.9 ± 0.8% in series [3] (setting [6]). In series [2], the “fungal growth inhibition, B. cinerea” value is “n.o”.

The inhibition is the relative decrease from the control value, in per cent. By IC50 is commonly meant the concentration that inhibits the measured activity by half. For the compound `CC(C)(C)c1cccc(/C=N/NC(=O)c2ccc(O)cc2)c1O` [compound 18], the “Germination index (GI), flax, test 1” value in series [5] is “stimulating”. The “Germination index (GI), rapeseed, test 1” value in series [4] is given as 67%. Besides, in series [1] (setting [8]), the inhibition at 6.25 µg/mL is 70.6 to 87.6% and the inhibition at 12.5 µg/mL was determined as 96.3%. In series [1] (setting [7]), the IC50 came to 1.8 mg/L (≈ 5.76 µM) and the inhibition of growth at 50 µg/mL turned out to be 97.1 ± 1.1%. In series [2], the inhibition at 6.25 µg/mL turned out to be 20.2%, the inhibition at 25 µg/mL came to 56.4%, the inhibition at 50 µg/mL is 64.7% and the IC50 was 20 mg/L (≈ 64 µM). Besides, the inhibition of growth at 50 µg/mL in series [2] worked out at 82.1 ± 3.1%. Moreover, in series [3], the inhibition at 50 µg/mL turned out to be 76.5% and the 50% inhibitory concentration (IC50) stood at 18.3 mg/L (≈ 58.6 µM). The inhibition of growth at 50 µg/mL in series [3] (setting [6]) stood at 85.9 ± 2.1%.

Take `O=C(N/N=C/c1cccc(-c2ccccc2)c1O)c1ccc(O)cc1` [compound 19]: the “Germination index (GI), rapeseed, test 1” value in series [4] was “stimulating”. In addition, in series [1] (setting [7]), the IC50 came out at 69.9 mg/L (≈ 210 µM) and the inhibition of growth at 50 µg/mL was determined as 50.6 ± 5.5%. Further, in series [2], the inhibition at 6.25 µg/mL amounted to 30.1%, the inhibition at 25 µg/mL worked out at 70.1%, the inhibition at 50 µg/mL came to 74.1% and the IC50 was 13.9 mg/L (≈ 41.8 µM). Also, in series [2], the inhibition of growth at 50 µg/mL was 73.5 ± 3.3%. Besides, in series [3], the inhibition at 50 µg/mL was found to be 70.5% and the half-maximal inhibitory concentration (IC50) was 20.3 mg/L (≈ 61.1 µM). For the same compound, the inhibition of growth at 50 µg/mL in series [3] (setting [6]) was determined as 71.4 ± 2.1%.

As to `Cc1cc(/C=N/NC(=O)c2ccc(O)cc2)c(O)c(CO)c1` [compound 25], the “Germination index (GI), flax, test 1” value in series [5] is “stimulated”. Moreover, the “Germination index (GI), rapeseed, test 1” value in series [4] was “stimulated”. In addition, the “fungal growth inhibition, S. sclerotiorum” value in series [1] was “n.o”. Moreover, the inhibition of growth at 50 µg/mL in series [2] worked out at 2.8 ± 1.9%; in series [3] (setting [6]), 70.1 ± 1.8%.

Turning to `CC(C)(C)c1cc(/C=N/NC(=O)c2ccc(O)cc2)c(O)c(C(C)(C)C)c1` [compound 27], the “Germination index (GI), rapeseed, test 1” value in series [4] is reported as 83%. Also, the inhibition at 6.25 µg/mL in series [1] (setting [8]) stood at 82.9%. Also, the inhibition at 50 µg/mL in series [1] (Sclerotinia sclerotiorum, FSC10, fungicidal profile, 50 µg/mL, read-out: S. sclerotiorum inhibition) was 93.1%. For the same compound, the 50% inhibitory concentration (IC50) in series [1] (setting [7]) came out at 0.5 mg/L (≈ 1.36 µM); in series [3], 2190 mg/L (≈ 5950 µM). The values for the inhibition of growth at 50 µg/mL in series [1] (setting [7]), in series [2] and in series [3] (setting [6]) were 85.5 ± 3.2%, 23.4 ± 2.7% and 42.8 ± 2.2%, respectively.

On to `Cc1cc(/C=N/NC(=O)c2ccc(O)cc2)c(O)c(C(C)(C)C)c1` [compound 30], for which the inhibition at 6.25 µg/mL in series [1] (setting [8]) was in the range of 70.6 to 87.6%. The inhibition at 12.5 µg/mL in series [1] (setting [8]) came to 98.7%. Besides, the figures for the half-inhibitory concentration (IC50) in series [1] (setting [7]), in series [2] and in series [3] were 0.8 mg/L (≈ 2.45 µM), 62.5 mg/L (≈ 191 µM) and 13.5 mg/L (≈ 41.4 µM), respectively. In addition, the inhibition of growth at 50 µg/mL in series [1] (setting [7]) was found to be 96.8 ± 2.2%; in series [2] it was 76.2 ± 2.2%; in series [3] (setting [6]), 89.8 ± 0.4%. In addition, the inhibition at 50 µg/mL in series [3] came out at 90.5%.
